Activity calls are given as the source filed them.
Experiments:
HEK293 = assay: cells; type: functional, cell-based; settings: Homo sapiens
[1] = target: T1, Nuclear receptor subfamily 0 group B member 1 (Homo sapiens, UniProt P51843); assay: Luminescence-based cell-based high throughput dose response assay for inhibitors of the orphan nuclear receptor subfamily 0, group B, member 1 (DAX1; NR0B1). [Related pubchem assays (depositor defined):AID504766, AID504790]; type: functional
T1 sequence (P51843 whole entry): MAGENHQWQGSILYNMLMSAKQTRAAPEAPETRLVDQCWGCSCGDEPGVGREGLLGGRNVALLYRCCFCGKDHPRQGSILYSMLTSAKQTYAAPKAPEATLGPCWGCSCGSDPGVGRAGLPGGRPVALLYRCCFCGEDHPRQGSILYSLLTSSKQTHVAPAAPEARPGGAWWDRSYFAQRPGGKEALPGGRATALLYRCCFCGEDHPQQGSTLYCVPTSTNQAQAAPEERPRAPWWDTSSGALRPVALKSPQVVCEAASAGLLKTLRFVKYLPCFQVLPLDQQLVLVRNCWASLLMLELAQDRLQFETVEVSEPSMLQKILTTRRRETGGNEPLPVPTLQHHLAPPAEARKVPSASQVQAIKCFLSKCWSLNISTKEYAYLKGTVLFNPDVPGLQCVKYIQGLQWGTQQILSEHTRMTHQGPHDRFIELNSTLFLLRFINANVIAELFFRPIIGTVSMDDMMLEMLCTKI

[2] = target: T2, Corticotropin-releasing factor receptor 2/Corticotropin-releasing factor-binding protein (Homo sapiens, UniProt P24387+Q13324); assay: Dose Response confirmation of uHTS hits for small molecule antagonists of the CRF-binding protein and CRF-R2 receptor complex.; type: functional; settings: read-out: IC50_Mean
T2 sequence (Q13324 whole entry): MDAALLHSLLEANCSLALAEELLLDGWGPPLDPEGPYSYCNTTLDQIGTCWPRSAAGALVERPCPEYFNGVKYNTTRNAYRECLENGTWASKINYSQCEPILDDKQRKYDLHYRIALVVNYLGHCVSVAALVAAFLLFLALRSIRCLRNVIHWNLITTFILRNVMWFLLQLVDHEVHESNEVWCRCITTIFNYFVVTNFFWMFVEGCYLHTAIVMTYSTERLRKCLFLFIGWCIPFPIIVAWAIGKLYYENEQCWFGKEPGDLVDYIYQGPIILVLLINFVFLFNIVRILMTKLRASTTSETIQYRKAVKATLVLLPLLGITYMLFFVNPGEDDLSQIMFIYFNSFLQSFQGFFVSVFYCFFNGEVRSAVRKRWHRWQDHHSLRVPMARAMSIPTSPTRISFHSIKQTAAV
T2 sequence (P24387 whole entry): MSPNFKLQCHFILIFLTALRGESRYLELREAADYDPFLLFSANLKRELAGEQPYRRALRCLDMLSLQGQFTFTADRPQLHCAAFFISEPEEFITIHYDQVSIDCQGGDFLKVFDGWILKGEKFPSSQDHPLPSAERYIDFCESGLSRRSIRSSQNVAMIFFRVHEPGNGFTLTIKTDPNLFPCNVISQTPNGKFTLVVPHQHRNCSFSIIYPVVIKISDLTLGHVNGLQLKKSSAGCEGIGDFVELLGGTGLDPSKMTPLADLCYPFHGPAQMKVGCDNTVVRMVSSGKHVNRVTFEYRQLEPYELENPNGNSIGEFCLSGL

[3] = target: T2, Corticotropin-releasing factor receptor 2/Corticotropin-releasing factor-binding protein; assay: activators of CRF receptor 2 with binding protein – uHTS hits, confirmation (AID 602473); type: functional; settings: read-out: EC50_Mean
[4] = NIH-3T3 fibroblast cytotoxicity, dose response, cytotoxicity control, cell-based, fluorescence, Alamar Blue, secondary assay (AID 2327); type: functional;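 also: NIH-3T3 mouse fibroblasts cultured with fluconazole at 8 µg/mL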
[5] = C. albicans growth with fluconazole, confirmation, fluorescence, retest (AID 2467); type: functional, cell-based
[6] = target: T3, Serine/threonine-protein phosphatase (Candida dubliniensis (strain CD36 / CBS 7987 / NCPF 3949 / NRRLY-17841) (Yeast), UniProt B9W6M3); assay: calcineurin pathway inhibitors in yeast reporter, dose response, S. cerevisiae, CDRE-lacZ, luminescence, secondary (AID 2388); type: functional, cell-based;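 also: yeast reporter cells carrying a calcineurin-responsive lacZ construct stimulated with calcium chloride; luminescent beta-galactosidase reporter signal in whole cells rather than isolated phosphatase activity; potency for inhibition where a drop in reporter signal means calcineurin blockade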
T3 sequence (B9W6M3 whole entry): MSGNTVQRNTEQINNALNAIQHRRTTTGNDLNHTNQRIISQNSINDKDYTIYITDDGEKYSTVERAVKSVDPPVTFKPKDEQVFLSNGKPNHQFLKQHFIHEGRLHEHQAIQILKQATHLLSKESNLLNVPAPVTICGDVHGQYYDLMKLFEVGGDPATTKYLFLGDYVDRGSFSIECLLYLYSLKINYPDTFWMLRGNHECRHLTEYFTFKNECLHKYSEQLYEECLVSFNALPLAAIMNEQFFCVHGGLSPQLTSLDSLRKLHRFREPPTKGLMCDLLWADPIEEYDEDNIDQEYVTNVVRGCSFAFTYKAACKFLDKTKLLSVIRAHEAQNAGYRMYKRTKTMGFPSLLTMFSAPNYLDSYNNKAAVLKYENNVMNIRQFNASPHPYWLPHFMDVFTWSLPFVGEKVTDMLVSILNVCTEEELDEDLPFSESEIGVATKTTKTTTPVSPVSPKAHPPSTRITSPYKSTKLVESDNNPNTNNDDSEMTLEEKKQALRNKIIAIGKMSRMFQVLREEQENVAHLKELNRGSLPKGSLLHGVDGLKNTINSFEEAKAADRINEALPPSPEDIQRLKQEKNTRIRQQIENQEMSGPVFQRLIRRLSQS

Genome polyprotein = Genome polyprotein (dengue virus type 2, UniProt P29990); assay: Dengue-2 NS5 methyltransferase inhibitors, primary screen, biochemical, confirmation dose response (AID 588689); type: functional
Genome polyprotein, sequence (P29990 2492-3391 limits assumed): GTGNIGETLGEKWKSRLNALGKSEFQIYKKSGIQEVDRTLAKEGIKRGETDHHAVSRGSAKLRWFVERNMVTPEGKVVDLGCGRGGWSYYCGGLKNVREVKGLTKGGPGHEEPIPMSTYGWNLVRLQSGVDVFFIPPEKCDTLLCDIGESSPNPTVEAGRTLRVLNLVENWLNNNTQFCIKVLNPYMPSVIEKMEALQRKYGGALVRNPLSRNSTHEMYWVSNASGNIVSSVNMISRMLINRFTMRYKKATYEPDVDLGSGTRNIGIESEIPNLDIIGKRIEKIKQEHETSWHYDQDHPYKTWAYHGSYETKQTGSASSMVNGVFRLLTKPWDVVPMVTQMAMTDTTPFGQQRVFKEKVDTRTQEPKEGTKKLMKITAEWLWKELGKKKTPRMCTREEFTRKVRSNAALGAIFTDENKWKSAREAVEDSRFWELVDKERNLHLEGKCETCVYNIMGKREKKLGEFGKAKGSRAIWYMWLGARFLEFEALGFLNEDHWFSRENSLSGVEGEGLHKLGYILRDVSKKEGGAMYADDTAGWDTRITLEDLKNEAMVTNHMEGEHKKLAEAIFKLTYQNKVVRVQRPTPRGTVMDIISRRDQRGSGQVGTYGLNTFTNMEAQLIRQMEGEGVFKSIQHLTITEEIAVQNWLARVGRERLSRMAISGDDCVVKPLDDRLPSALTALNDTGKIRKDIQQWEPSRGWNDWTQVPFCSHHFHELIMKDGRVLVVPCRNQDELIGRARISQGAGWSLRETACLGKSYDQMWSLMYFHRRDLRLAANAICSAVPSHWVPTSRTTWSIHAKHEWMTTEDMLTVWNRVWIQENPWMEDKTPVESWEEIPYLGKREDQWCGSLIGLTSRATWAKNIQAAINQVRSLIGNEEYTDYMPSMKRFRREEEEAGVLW

[7] = target: ATP-dependent molecular chaperone HSP82 (Candida albicans (strain WO-1) (Yeast), UniProt C4YTQ8); assay: loss of DOC-induced GRE-beta-galactosidase reporter signal, dose response, Hsp90 inhibitor project, S. cerevisiae, luminescence (AID 2400); type: functional, cell-based;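 also: beta-galactosidase luminescence from glucocorticoid response element reporter as proxy for Hsp90 function; inhibitor potency where signal loss means Hsp90 inhibition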
ATP-dependent molecular chaperone HSP82, sequence (C4YTQ8 whole entry): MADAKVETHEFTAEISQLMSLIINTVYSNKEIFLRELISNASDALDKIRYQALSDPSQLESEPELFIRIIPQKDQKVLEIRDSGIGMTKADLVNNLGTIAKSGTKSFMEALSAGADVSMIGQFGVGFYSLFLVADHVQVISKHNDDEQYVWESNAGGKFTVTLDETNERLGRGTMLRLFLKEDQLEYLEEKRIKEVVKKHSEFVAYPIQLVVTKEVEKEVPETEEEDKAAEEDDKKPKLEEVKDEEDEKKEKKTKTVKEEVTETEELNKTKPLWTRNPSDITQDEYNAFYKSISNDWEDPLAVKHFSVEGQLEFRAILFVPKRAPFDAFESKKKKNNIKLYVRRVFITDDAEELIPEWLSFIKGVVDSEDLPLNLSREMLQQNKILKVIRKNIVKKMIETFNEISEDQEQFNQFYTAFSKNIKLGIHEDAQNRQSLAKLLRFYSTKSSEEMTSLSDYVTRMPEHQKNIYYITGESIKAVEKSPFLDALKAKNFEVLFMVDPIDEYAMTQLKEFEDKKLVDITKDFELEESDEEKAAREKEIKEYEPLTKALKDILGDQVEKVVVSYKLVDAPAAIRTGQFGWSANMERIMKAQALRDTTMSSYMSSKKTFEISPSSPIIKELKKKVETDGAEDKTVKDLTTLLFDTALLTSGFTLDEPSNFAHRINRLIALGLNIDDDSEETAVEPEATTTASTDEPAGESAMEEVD

[8] = system: Streptococcus sp. 'group A'; assay: growth inhibition of control SK(-) GAS strain, dose response, counter-screen for streptokinase expression inhibitor project, luminescence, kanamycin, BacTiterGlo, confirmation (AID 1900); type: functional, organism-based
Streptokinase A = target: T4, Streptokinase A (Streptococcus pyogenes serotype M1, UniProt P10520); assay: S. pyogenes streptokinase expression inhibitors, potency, dose response, plasminogen activation absorbance, OD405 (AID 1914); type: functional, Streptococcus pyogenes M1 GAS;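 also: secreted streptokinase activity via plasminogen activation per viability signal from cell pellet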
T4 sequence (P10520 whole entry): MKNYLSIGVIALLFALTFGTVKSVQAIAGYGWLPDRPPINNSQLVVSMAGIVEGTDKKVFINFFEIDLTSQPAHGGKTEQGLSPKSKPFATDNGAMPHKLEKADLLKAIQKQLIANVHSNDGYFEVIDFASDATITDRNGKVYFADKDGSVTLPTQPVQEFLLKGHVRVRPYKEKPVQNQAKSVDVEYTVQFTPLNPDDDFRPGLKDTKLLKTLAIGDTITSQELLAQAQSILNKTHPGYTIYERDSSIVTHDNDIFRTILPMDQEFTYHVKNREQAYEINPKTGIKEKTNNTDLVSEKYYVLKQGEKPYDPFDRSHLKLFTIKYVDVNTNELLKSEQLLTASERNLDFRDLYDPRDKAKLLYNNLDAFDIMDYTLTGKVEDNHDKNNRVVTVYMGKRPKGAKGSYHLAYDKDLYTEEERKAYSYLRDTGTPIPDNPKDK

Streptococcus = assay: Group A Streptococcus viability loss, dose response, counter-screen for streptokinase expression inhibitor project, luminescence, BacTiterGlo (AID 1915); type: functional, organism-based;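 also: potency for reduction of bacterial viability or growth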
[9] = THP-1 cell cytotoxicity, dose response, cytotoxicity control for non-replicating M. tuberculosis project (AID 489025); type: functional
[10] = Vero E6 cell cytotoxicity, dose response, cytotoxicity control for non-replicating M. tuberculosis project, secondary assay (AID 492998); type: functional, VeroE6; settings: Vero C1008
cells = type: functional
[11] = target: Delta-type opioid receptor (Homo sapiens, UniProt P41143); assay: Counterscreen for agonists of heterodimerization of the mu 1 (OPRM1) and delta 1 (OPRD1) opioid receptors: Luminescence-based cell-based high throughput dose response assay to identify agonists of OPRD1 homodimerization. [Related pubchem assays (depositor defined):AID504326, AID504355, AID504692, AID504904, AID504905]; type: functional
Delta-type opioid receptor, sequence (P41143 whole entry): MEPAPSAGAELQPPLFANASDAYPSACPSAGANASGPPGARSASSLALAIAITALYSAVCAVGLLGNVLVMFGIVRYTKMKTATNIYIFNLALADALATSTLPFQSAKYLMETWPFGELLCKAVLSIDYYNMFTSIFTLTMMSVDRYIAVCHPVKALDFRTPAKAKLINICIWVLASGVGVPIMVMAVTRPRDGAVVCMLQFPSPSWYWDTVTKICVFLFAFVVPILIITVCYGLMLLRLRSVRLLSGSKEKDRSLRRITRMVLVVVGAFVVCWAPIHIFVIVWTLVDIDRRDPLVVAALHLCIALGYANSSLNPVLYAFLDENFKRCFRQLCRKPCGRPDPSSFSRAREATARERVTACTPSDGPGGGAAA

Mu-type opioid receptor = Mu-type opioid receptor (Homo sapiens, UniProt P35372); assay: Counterscreen for agonists of heterodimerization of the mu 1 (OPRM1) and delta 1 (OPRD1) opioid receptors: Luminescence-based cell-based high throughput dose response assay to identify agonists of OPRM1 homodimerization.; type: functional;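 also: U2OS cells expressing OPRM1 and beta-arrestin as split beta-galactosidase partners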
Mu-type opioid receptor, sequence (P35372 whole entry): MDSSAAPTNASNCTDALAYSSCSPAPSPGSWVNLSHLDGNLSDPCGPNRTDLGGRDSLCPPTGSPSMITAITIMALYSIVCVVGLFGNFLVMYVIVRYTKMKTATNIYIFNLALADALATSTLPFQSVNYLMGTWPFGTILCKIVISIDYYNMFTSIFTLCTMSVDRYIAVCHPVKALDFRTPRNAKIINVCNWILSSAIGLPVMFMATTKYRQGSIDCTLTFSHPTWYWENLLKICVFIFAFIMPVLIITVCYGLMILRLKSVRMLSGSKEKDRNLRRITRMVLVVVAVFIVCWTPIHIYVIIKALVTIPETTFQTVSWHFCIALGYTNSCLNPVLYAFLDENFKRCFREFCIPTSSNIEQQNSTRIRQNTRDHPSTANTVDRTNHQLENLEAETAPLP

[12] = target: 5-hydroxytryptamine receptor 5A (Homo sapiens, UniProt P47898); assay: Counterscreen for agonists of OPRM1-OPRD1 heterodimerization: luminescence-based cell-based high throughput dose response assay to identify agonists of 5-hydroxytryptamine (serotonin) 5A receptor (HTR5A). [Related pubchem assays (depositor defined):AID504326, AID504355, AID504692, AID504904, AID504905]; type: functional
5-hydroxytryptamine receptor 5A, sequence (P47898 whole entry): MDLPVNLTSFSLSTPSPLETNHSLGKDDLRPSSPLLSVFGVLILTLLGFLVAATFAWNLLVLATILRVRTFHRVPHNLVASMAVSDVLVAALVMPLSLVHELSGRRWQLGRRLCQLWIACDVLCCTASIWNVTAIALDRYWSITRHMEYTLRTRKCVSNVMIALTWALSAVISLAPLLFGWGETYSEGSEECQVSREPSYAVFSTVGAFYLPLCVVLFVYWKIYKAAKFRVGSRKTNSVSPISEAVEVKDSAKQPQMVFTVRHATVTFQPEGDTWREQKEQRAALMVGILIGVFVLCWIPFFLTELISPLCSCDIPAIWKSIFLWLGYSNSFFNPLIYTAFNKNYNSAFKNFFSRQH

[13] = insulin promoter down-regulators in MIN6 cells, imaging, high-content screening, mouse beta cells (AID 1628); type: functional
[14] = cytotoxicity in MIN6 insulinoma cells, dose response, cytotoxicity control, cell-based, mouse insulinoma (AID 2122); type: functional;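 also: confirmatory high-throughput counterscreen run to flag cytotoxic compounds; mouse MIN-6 beta cells carrying an insulin promoter eGFP reporter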
[15] = microbe, parasite or virus in culture; type: functional; settings: Mycobacterium tuberculosis
[16] = growth suppression of PTEN-null colon cells, dose response, cell-based, HCT116 PTEN knockout (AID 1047); type: functional;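 also: HCT116 colon tumor cells with PTEN knocked out; cells exposed to compound for 60 hours before readout; potency for loss of cell viability measured by luminescence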
[17] = growth suppression of beta-catenin-knockout colon cells, dose response, cell-based, HCT116, human colon tumor (AID 1045); type: functional;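 also: HCT116 colon tumor cells with beta catenin knocked out; cells exposed to compound for 60 hours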
[18] = target: T5, Microphthalmia-associated transcription factor (Homo sapiens, UniProt O75030); assay: TRPM1 promoter luciferase signal decrease, dose response, MITF inhibitor project, cell-based, SK-MEL-5, cherry-picked, set 3 (AID 493073); type: functional
T5 sequence (O75030 whole entry): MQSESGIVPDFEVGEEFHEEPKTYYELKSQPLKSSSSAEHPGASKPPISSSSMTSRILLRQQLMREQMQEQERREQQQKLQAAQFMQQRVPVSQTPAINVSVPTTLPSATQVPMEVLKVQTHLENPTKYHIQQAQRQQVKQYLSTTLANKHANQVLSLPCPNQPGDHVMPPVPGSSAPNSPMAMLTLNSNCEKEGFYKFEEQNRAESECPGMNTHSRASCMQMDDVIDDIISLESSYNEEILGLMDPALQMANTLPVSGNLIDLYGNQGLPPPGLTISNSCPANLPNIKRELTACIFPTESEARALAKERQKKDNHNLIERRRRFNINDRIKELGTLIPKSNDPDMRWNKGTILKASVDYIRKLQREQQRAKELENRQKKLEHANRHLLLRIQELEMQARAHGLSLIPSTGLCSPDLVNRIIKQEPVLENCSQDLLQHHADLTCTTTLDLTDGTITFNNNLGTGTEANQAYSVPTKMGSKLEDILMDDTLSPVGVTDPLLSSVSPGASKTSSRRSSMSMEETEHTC

A-375 = assay: MITF: Counter assay: A375 proliferation Measured in Cell-Based System Using Plate Reader - 2084-03_Inhibitor_Dose_DryPowder_Activity. [Related pubchem assays (depositor defined):AID488944]; type: functional; settings: Homo sapiens
[19] = inhibitors of PGC1a acetylation in cells, dose response, cell-based, cherry-picked samples (AID 720514); type: functional;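 also: potency may reflect raised or lowered acetylation signal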
[20] = Vero cell cytotoxicity, dose response, cytotoxicity control for Vif-APOBEC3G degradation inhibitor project, Vero cells (AID 1117358); type: functional; settings: Human immunodeficiency virus 1, Vero
[21] = target: FAD-linked sulfhydryl oxidase ALR (Homo sapiens, UniProt P55789); assay: inhibitors of human ALR sulfhydryl oxidase, dose response, biochemical, H2O2 detection, luminescence, cherry-pick (AID 493248)
FAD-linked sulfhydryl oxidase ALR, sequence (P55789 whole entry): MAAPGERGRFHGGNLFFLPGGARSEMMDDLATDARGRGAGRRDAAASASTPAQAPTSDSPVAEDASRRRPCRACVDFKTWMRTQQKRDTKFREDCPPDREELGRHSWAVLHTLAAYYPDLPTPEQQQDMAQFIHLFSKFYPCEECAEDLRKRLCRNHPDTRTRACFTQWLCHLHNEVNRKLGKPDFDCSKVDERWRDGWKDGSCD

In the case of `Cc1nc(-c2ccncc2)nc(NCCNc2ccc(C(F)(F)F)cn2)c1Cl`, the IC50 (HEK293) was > 67.5 µM (inactive), the IC50 [1] was > 67.5 µM (inactive) and the IC50 [2] was > 47.1 µM (inactive). For the same compound, the EC50 [3] was > 53 µM (inactive).

For `COc1ccccc1/C=C1\SC(=S)N(NS(=O)(=O)c2ccccc2)C1=O`, the EC50 [4] was > 150 µM (inconclusive), the EC50 [5] was 940 nM (active) and the EC50 [6] was > 180 µM (inactive). The IC50 (Genome polyprotein) was 36.2 µM (active) and the EC50 [7] was 18.2 µM (active).

For `C/C(CC(=O)Nc1ccc(Cl)cc1C(F)(F)F)=N\NC(=O)c1cccs1`, the IC50 (HEK293) was > 67.6 µM (inactive) and the IC50 [1] was > 67.6 µM (inactive).

For `CCCn1nnnc1NC(=O)c1ccc2ccccc2c1`, the EC50 [4] was 121 µM (active), the EC50 [8] was 1.59 µM (active) and the EC50 (Streptokinase A) was > 150 µM (not active). For the same compound, the EC50 [5] was 505 nM (active), the EC50 [6] was > 180 µM (inactive) and the EC50 (Streptococcus) was > 150 µM (not active). For the same compound, the CC50 [9] was 39.5 µM (active), the CC50 [10] was > 20 µM (active) and the IC50 (cells) was 900 nM (active). For the same compound, the EC50 [7] was 82.2 µM (active).

In the case of `OCC1(CCc2ccccc2)CCN(Cc2cc(F)ccc2-n2cccn2)CC1`, the EC50 [11] was > 92.5 µM (inactive), the EC50 (Mu-type opioid receptor) was > 92.5 µM (inactive) and the EC50 [12] was > 92.5 µM (inactive).

With `COc1ccc(-c2cc(-c3ccccc3)c(C#N)c([S+](C)[O-])n2)cc1` (stereo unspecified) the IC50 [13] was 2.05 µM (active), the IC50 [14] was 2.76 µM (active) and the CC50 [15] was 23 µM (active). The EC50 [16] was 3.33 µM (active), the EC50 [17] was 2.12 µM (active) and the AC50 [18] was 11.8 µM (active). For the same compound, the AC50 (A-375) was 20.2 µM (active), the AC50 [19] was 4.89 µM (active) and the CC50 [20] was 31.4 µM (active).

For `COc1ccc(Nc2[nH]nc(N)c2C(N)=O)cc1`, the AC50 [21] was 2.71 µM (active), the IC50 (HEK293) was > 67.5 µM (inactive) and the IC50 [1] was > 67.5 µM (inactive).

Source: ChEMBL document CHEMBL1201862, “PubChem BioAssay data set” (2004)
